Data taken from publication doi:10.1101/2020.06.11.145995v1 (biorxiv, 2020).
Where two headings read alike, the source gives them in different places.

How the values were obtained:
Test in all cases: biochemical
[1] = biological target: ABL1(F317L)-nonphosphorylated (Homo sapiens, UniProt P00519, F317L)
GAK = GAK (Homo sapiens, UniProt O14976)
MLCK = MLCK (Homo sapiens, UniProt Q32MK0)
CDK5 = CDK5 (Homo sapiens, UniProt Q00535)
CAMK1 = CAMK1 (Homo sapiens, UniProt Q14012)
MYO3B = MYO3B (Homo sapiens, UniProt Q8WXR4)
AMPK-alpha2 = AMPK-alpha2 (Homo sapiens, UniProt P54646)
CAMK1D = CAMK1D (Homo sapiens, UniProt Q8IU85)
Chain of CAMK1D (Q8IU85 whole entry): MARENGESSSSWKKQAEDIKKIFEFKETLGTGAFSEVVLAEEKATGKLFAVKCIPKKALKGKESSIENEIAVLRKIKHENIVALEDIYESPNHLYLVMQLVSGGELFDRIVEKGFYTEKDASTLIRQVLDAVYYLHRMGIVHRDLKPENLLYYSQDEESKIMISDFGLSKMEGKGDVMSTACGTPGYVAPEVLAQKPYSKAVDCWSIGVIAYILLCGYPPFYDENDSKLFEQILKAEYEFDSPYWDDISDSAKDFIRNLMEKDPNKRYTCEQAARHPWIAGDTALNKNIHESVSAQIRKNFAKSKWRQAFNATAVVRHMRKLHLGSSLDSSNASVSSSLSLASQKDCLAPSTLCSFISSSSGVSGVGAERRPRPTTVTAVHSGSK

MAPKAPK2 = MAPKAPK2 (Homo sapiens, UniProt P49137)
[2] = biological target: JAK1(JH1domain-catalytic) (Homo sapiens, UniProt P23458)
Chain of JAK1(JH1domain-catalytic) (P23458 whole entry): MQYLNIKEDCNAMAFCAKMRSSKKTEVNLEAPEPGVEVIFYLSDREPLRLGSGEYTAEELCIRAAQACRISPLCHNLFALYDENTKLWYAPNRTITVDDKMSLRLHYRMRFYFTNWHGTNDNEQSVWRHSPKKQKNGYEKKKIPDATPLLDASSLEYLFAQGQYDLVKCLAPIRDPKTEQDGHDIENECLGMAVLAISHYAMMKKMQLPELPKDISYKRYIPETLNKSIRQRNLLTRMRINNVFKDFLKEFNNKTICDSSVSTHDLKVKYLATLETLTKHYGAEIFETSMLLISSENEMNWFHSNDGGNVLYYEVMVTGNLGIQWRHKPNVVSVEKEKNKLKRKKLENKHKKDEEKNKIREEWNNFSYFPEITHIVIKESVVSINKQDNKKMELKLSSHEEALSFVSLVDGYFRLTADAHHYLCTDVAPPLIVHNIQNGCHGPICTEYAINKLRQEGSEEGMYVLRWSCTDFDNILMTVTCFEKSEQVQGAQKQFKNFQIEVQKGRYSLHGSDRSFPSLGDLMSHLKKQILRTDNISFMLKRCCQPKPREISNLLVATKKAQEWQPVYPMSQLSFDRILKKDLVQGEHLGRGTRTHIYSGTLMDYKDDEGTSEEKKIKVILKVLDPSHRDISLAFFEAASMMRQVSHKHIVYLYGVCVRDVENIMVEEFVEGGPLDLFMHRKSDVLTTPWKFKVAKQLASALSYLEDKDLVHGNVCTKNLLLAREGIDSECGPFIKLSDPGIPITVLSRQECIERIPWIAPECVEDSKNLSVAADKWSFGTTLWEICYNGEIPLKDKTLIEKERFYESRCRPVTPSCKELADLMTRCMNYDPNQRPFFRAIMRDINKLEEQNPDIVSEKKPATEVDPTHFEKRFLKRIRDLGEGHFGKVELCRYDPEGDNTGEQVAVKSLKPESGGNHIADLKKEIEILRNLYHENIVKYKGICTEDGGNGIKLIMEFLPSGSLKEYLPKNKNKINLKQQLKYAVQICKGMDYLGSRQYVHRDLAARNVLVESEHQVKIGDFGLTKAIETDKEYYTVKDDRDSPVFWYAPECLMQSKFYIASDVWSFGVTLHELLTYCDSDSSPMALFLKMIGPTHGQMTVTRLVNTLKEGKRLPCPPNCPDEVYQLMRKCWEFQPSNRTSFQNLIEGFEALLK

[3] = biological target: JAK3(JH1domain-catalytic) (Homo sapiens, UniProt P52333)
[4] = biological target: ABL1(Y253F)-phosphorylated (Homo sapiens, UniProt P00519, Y253F)
[5] = biological target: JAK1(JH2domain-pseudokinase) (Homo sapiens, UniProt P23458)
Chain of JAK1(JH2domain-pseudokinase) (P23458 whole entry): as above

LTK = LTK (Homo sapiens, UniProt P29376)
Chain of LTK (P29376 whole entry): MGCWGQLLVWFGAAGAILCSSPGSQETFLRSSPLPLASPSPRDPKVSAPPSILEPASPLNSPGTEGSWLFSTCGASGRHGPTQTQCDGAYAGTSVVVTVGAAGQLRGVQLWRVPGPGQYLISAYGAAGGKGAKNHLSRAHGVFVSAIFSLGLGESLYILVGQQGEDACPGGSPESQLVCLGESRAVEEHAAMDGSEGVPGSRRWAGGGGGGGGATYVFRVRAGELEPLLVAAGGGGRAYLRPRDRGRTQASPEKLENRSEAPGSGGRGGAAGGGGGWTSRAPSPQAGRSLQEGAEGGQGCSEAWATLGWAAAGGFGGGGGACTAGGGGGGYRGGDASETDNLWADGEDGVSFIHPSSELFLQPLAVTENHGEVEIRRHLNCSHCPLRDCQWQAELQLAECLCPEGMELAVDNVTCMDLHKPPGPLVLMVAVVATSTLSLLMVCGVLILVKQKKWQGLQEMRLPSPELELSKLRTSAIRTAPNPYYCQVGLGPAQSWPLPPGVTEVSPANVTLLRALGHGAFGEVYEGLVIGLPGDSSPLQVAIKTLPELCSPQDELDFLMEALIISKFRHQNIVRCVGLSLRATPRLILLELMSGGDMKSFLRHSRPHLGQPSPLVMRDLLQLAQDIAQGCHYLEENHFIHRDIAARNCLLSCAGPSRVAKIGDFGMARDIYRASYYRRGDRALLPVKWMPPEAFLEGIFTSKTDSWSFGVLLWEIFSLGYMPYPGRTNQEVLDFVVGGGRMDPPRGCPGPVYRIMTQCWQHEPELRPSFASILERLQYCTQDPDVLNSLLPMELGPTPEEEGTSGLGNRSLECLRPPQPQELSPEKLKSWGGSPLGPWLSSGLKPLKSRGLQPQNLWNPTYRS

DYRK1B = DYRK1B (Homo sapiens, UniProt Q9Y463)
Chain of DYRK1B (Q9Y463 whole entry): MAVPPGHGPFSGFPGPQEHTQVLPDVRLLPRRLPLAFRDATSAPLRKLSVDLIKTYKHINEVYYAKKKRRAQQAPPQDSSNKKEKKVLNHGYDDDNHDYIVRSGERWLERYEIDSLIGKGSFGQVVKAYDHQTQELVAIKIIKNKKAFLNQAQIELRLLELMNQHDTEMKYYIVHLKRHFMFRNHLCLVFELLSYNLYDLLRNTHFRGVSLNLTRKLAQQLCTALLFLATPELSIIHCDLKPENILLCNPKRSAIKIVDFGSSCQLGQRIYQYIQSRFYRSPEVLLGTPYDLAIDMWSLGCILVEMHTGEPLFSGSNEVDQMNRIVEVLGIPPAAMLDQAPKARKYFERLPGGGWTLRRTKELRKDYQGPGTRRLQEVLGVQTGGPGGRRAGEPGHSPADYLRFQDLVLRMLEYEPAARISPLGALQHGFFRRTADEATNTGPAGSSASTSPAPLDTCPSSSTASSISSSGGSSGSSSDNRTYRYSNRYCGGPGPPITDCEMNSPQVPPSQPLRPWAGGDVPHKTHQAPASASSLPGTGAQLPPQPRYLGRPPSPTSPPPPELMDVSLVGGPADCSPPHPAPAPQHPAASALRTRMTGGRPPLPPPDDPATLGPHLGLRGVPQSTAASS

[6] = biological target: ABL1(T315I)-phosphorylated (Homo sapiens, UniProt P00519, T315I)
[7] = biological target: JAK2(JH1domain-catalytic) (Homo sapiens, UniProt O60674)
KIT(V559D,V654A) = KIT(V559D,V654A) (Homo sapiens, UniProt P10721, V559D/V654A)
Chain of KIT(V559D,V654A) (P10721 whole entry V559D/V654A): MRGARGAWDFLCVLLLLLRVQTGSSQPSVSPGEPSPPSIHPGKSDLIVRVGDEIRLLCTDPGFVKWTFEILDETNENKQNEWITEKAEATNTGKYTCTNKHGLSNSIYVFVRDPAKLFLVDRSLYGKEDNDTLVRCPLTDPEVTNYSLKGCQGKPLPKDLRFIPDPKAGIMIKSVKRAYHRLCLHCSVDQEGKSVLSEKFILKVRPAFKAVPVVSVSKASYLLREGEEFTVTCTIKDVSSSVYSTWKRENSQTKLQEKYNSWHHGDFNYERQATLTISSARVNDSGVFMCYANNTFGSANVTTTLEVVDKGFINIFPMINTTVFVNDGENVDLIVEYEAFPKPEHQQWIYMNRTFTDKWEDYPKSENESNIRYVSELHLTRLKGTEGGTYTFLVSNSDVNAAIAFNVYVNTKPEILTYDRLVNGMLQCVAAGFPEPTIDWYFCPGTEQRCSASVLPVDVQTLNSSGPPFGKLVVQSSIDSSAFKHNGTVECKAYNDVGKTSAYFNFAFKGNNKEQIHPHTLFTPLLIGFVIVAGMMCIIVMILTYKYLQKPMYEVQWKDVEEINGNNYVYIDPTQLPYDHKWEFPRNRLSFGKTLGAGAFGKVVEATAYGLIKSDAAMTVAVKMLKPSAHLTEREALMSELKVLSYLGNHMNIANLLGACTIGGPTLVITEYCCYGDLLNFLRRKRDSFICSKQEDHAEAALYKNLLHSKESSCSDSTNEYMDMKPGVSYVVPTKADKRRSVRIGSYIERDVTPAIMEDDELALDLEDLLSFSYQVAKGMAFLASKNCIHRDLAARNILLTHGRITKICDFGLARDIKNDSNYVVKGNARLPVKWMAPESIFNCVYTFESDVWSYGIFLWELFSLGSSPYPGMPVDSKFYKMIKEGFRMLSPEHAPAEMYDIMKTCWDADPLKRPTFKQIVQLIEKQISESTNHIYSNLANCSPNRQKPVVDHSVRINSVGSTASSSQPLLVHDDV

[8] = biological target: ABL1(F317L)-phosphorylated (Homo sapiens, UniProt P00519, F317L)
STK33 = STK33 (Homo sapiens, UniProt Q9BYT3)
Chain of STK33 (Q9BYT3 whole entry): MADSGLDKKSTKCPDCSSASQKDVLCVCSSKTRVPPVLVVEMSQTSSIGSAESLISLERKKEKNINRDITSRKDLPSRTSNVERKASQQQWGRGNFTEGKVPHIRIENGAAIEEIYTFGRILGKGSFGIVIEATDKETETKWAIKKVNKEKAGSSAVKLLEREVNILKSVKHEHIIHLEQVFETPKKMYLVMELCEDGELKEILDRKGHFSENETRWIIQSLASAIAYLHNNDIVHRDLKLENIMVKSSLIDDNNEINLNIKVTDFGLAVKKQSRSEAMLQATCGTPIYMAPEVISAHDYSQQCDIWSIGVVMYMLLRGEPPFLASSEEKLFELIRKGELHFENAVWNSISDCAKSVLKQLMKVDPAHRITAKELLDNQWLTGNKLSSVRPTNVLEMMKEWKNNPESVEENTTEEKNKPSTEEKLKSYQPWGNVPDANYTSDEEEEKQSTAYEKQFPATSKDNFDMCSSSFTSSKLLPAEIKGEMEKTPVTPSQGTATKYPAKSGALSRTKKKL

[9] = biological target: ABL1(H396P)-phosphorylated (Homo sapiens, UniProt P00519, H396P)
GCN2(Kin.Dom.2,S808G) = GCN2(Kin.Dom.2,S808G) (Homo sapiens, UniProt Q9P2K8, S808G)
[10] = biological target: ABL1(Q252H)-phosphorylated (Homo sapiens, UniProt P00519, Q252H)
[11] = biological target: ABL1(M351T)-phosphorylated (Homo sapiens, UniProt P00519, M351T)
[12] = biological target: ABL1(F317I)-nonphosphorylated (Homo sapiens, UniProt P00519, F317I)
[13] = biological target: ABL1(F317I)-phosphorylated (Homo sapiens, UniProt P00519, F317I)
ABL1-nonphosphorylated = ABL1-nonphosphorylated (Homo sapiens, UniProt P00519)
[14] = read-out: CPT-1-70-1 (1uM) % control
[15] = read-out: HYJ-2-002-1 (1uM) % control

Chain of CAMK1 (Q14012 whole entry): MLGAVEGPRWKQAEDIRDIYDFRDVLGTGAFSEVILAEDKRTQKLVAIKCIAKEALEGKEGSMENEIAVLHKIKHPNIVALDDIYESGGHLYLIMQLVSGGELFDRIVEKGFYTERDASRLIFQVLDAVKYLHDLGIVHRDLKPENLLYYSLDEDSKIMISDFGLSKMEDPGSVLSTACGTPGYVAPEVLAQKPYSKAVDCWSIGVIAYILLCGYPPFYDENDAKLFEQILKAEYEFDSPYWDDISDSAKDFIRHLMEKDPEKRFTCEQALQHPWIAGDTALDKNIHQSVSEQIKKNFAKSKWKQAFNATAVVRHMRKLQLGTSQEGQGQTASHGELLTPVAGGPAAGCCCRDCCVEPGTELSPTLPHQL

CN1CCN(c2ccc(Nc3nc(Oc4ccc(NC(=O)CCl)cc4)c4cc[nH]c4n3)cc2)CC1 [CPT1-70-1]
remaining activity at 1 µM [1, 14]: 100% | remaining activity at 1 µM (GAK; [14]): 7.9% | remaining activity at 1 µM (MLCK; [14]): 100% | remaining activity at 1 µM (CDK5; [14]): 100% | remaining activity at 1 µM (CAMK1; [14]): 57% | remaining activity at 1 µM (MYO3B; [14]): 100% | remaining activity at 1 µM (AMPK-alpha2; [14]): 41% | remaining activity at 1 µM (CAMK1D; [14]): 56% | remaining activity at 1 µM (MAPKAPK2; [14]): 100% | remaining activity at 1 µM [2, 14]: 77% | remaining activity at 1 µM [3, 14]: 0% | remaining activity at 1 µM [4, 14]: 100% | remaining activity at 1 µM [5, 14]: 0.75% | remaining activity at 1 µM (LTK; [14]): 100% | remaining activity at 1 µM (DYRK1B; [14]): 79% | remaining activity at 1 µM [6, 14]: 19% | remaining activity at 1 µM [7, 14]: 1.2% | remaining activity at 1 µM (KIT(V559D,V654A); [14]): 100% | remaining activity at 1 µM [8, 14]: 99% | remaining activity at 1 µM (STK33; read-out: CPT-1-70-1 (1μM) % control): 10% | remaining activity at 1 µM [9, 14]: 100% | remaining activity at 1 µM (GCN2(Kin.Dom.2,S808G); [14]): 13% | remaining activity at 1 µM [10, 14]: 100% | remaining activity at 1 µM [11, 14]: 86% | remaining activity at 1 µM [12, 14]: 100% | remaining activity at 1 µM [13, 14]: 100% | remaining activity at 1 µM (ABL1-nonphosphorylated; [14]): 25%

CCN1CCN(Cc2ccc(NC(=O)c3ccc(C)c(CCc4cnc5[nH]ccc5c4OC)c3)cc2C(F)(F)F)CC1 [HYJ-2-002-1]
remaining activity at 1 µM [1, 15]: 0% | remaining activity at 1 µM (GAK; [15]): 4.8% | remaining activity at 1 µM (MLCK; [15]): 89% | remaining activity at 1 µM (CDK5; [15]): 100% | remaining activity at 1 µM (CAMK1; [15]): 80% | remaining activity at 1 µM (MYO3B; [15]): 49% | remaining activity at 1 µM (AMPK-alpha2; [15]): 100% | remaining activity at 1 µM (CAMK1D; [15]): 94% | remaining activity at 1 µM (MAPKAPK2; [15]): 100% | remaining activity at 1 µM [2, 15]: 41% | remaining activity at 1 µM [3, 15]: 2.4% | remaining activity at 1 µM [4, 15]: 0.7% | remaining activity at 1 µM [5, 15]: 93% | remaining activity at 1 µM (LTK; [15]): 89% | remaining activity at 1 µM (DYRK1B; [15]): 76% | remaining activity at 1 µM [6, 15]: 0.75% | remaining activity at 1 µM [7, 15]: 57% | remaining activity at 1 µM (KIT(V559D,V654A); [15]): 28% | remaining activity at 1 µM [8, 15]: 2% | remaining activity at 1 µM (STK33; read-out: HYJ-2-002-1 (1μM) % control): 66% | remaining activity at 1 µM [9, 15]: 0.1% | remaining activity at 1 µM (GCN2(Kin.Dom.2,S808G); [15]): 14% | remaining activity at 1 µM [10, 15]: 1% | remaining activity at 1 µM [11, 15]: 0.85% | remaining activity at 1 µM [12, 15]: 0% | remaining activity at 1 µM [13, 15]: 34% | remaining activity at 1 µM (ABL1-nonphosphorylated; [15]): 0.05%
